Data: patent US20130252988A1, “COMPOSITIONS AND METHODS FOR TREATING MYELOFIBROSIS” (TARGEGEN, INC., priority 2010, published 2013)
“Also recorded” adds a separate entry of the source. Structures can show the parent of a compound that is named as a salt. Where two headings read alike, the source gives them in different places. Marks after values point to notes of the source that are not given here.

Test system: subjects with myelofibrosis
Conditions: for Neutropenia Severity Grade 1-2, subjects n (%) / Neutropenia Severity Grade 3-4, subjects n (%) / Thrombocytopenia Severity Grade 1-2, subjects n (%) / Thrombocytopenia Severity Grade 3-4, subjects n (%) / Anemia Severity Grade 1-2, subjects n (%) / Anemia Severity Grade 3-4, subjects n (%): Table 10: at least possibly related
[1] = Table 9: AE at least possibly related to TG101348, MTD Cohort (n = 40)
[2] = All Subjects, not transfusion dependent at study entry (n = 37)
[3] = MTD Cohort, not transfusion dependent at study entry (n = 24)
[4] = overall, at least possibly related
[5] = subject 106-024, 800/680 mg/day, onset day 87, stopped temporarily, Recovered/resolved

Structure (SMILES): Cc1cnc(Nc2ccc(OCCN3CCCC3)cc2)nc1Nc1cccc(S(=O)(=O)NC(C)(C)C)c1 [TG101348, N-tert-butyl-3-[(5-methyl-2-{[4-(2-pyrrolidin-1-ylethoxy)phenyl]amino}pyrimidin-4-yl)amino]benzenesulfonamide dihydrochloride monohydrate]
- Nausea Severity Grade 1-2, subjects n (%) [1]: 31 (77.5%)
- Nausea Severity Grade 3-4, subjects n (%) [1]: 2 (5.0%)
- Skin exfoliation Severity Grade 1-2, subjects n (%) [1]: 8 (20.0%)
- Skin exfoliation Severity Grade 3-4, subjects n (%) [1]: 0
- Vomiting Severity Grade 1-2, subjects n (%) [1]: 27 (67.5%)
- Vomiting Severity Grade 3-4, subjects n (%) [1]: 1 (2.5%)
- Neutropenia Severity Grade 1-2, subjects n (%) (All Subjects (n = 59)): 2 (3.4%)
- Neutropenia Severity Grade 3-4, subjects n (%) (All Subjects (n = 59)): 6 (10.2%)
- Thrombocytopenia Severity Grade 1-2, subjects n (%) (All Subjects (n = 59)): 10 (17.0%)
- Thrombocytopenia Severity Grade 3-4, subjects n (%) (All Subjects (n = 59)): 14 (23.7%)
- Anemia Severity Grade 1-2, subjects n (%) [2]: 3 (8.1%)
- Anemia Severity Grade 3-4, subjects n (%) [2]: 13 (35.1%)
- Neutropenia Severity Grade 1-2, subjects n (%) (MTD Cohort (n = 40)): 2 (5.0%)
- Neutropenia Severity Grade 3-4, subjects n (%) (MTD Cohort (n = 40)): 4 (10.0%)
- Thrombocytopenia Severity Grade 1-2, subjects n (%) (MTD Cohort (n = 40)): 8 (20.0%)
- Thrombocytopenia Severity Grade 3-4, subjects n (%) (MTD Cohort (n = 40)): 11 (27.5%)
- Anemia Severity Grade 1-2, subjects n (%) [3]: 2 (8.3%)
- Anemia Severity Grade 3-4, subjects n (%) [3]: 13 (54.2%)
- Grade 3/4 neutropenia considered related to TG101348, subjects (all subjects): 10%
- Grade 3/4 thrombocytopenia considered related to TG101348, subjects (all subjects): 24%
- Dose-limiting toxicity (DLT) (at 800 mg/day, dihydrochloride monohydrate): asymptomatic grade 3 or 4 amylasemia/lipasemia that was reversible; also recorded: asymptomatic grade 3 or 4 hyperamylasemia (with or without hyperlipasemia) that was reversible
- Safety findings with continued dosing beyond 6 cycles (at data cutoff, extension study): no unique safety findings have emerged
- Cytokine rebound upon discontinuation of TG101348 (discontinued without prior dose reduction or tapering, dihydrochloride monohydrate): absence of immediate adverse cytokine-rebound phenomenon; also recorded: did not experience “cytokine rebound”
- Discontinuation because of adverse events during the extension study, number of subjects (following a total of 24 to 46 weeks on therapy): 3
- Subjects with disease progression (hepatosplenomegaly/ascites, accelerated myelofibrosis, leukemic transformation): Three
- Emergence of transfusion requirement, subjects (initiated treatment at 680 mg/day): 72%
- Emergence of transfusion requirement, subjects (initiated treatment at 240-520 mg/day): 33%
- Grade 3/4 anemia considered related to TG101348, subjects (of 37 subjects not transfusion dependent at baseline): 35%
- Maximum tolerated dose (MTD) (oral once daily, dose escalation 30 to 800 mg/day): 680 mg/day
- Grades 3/4 asymptomatic increase in ALT, subjects (overall): 7%
- Grades 3/4 asymptomatic increase in AST, subjects (overall): 2%
- Grades 3/4 asymptomatic increase in serum lipase, subjects (overall): 10%
- Grades 3/4 increase in alkaline phosphatase, subjects (overall): 0%
- Grades 3/4 increase in creatinine, subjects (overall): 0%
- Grade 4 nausea, diarrhea and vomiting (overall and MTD cohort): no Grade 4 events
- Grade 3 diarrhea, subjects [4]: 10%
- Grade 3 nausea, subjects [4]: 3%
- Grade 3 vomiting, subjects [4]: 3%
- Tolerability (patients with myelofibrosis, dihydrochloride monohydrate): generally well tolerated
- Serious adverse event Neutropenia: CTCAE Severity Grade (subject 101-047, 680/680 mg/day, onset day 52, stopped temporarily, Recovered/resolved): 2
- Serious adverse event Depression: CTCAE Severity Grade (subject 104-015, 360/520 mg/day, onset day 256, permanently discontinued, Not recovered/not resolved, died (suicide) approximately 12 weeks after discontinuation): 3*
- Serious adverse event Hyperlipasemia: CTCAE Severity Grade (subject 105-013, 240/0 mg/day, onset day 356, action none, Recovered/resolved): 4
- Serious adverse event Thrombocytopenia: CTCAE Severity Grade (subject 105-013, 240/360 mg/day, onset day 247, permanently discontinued, Not recovered/not resolved): 4
- Serious adverse event Thrombocytopenia: CTCAE Severity Grade (subject 105-013, starting dose/dose at event 240/360 mg/day, onset day 215, action none, Recovered/resolved): 4
- Serious adverse event Gallbladder pain: CTCAE Severity Grade (subject 105-056, 680/520 mg/day, onset day 95, stopped temporarily, Recovered/resolved with sequelae): 3
- Serious adverse event Cerebrovascular accident: CTCAE Severity Grade (subject 105-056, 680/680 mg/day, onset day 22, stopped temporarily, Recovered/resolved): 4
- Serious adverse event Cardiac arrest: CTCAE Severity Grade (subject 105-059, 680/360 mg/day, onset day 42, permanently discontinued, Fatal): 5
- Serious adverse event Hyperlipasemia: CTCAE Severity Grade (subject 105-059, 680/520 mg/day, onset day 28, stopped temporarily, Recovered/resolved): 3
- Serious adverse event Hyperlipasemia: CTCAE Severity Grade (subject 105-059, 680/680 mg/day, onset day 8, stopped temporarily, Recovered/resolved): 3
- Serious adverse event Dehydration: CTCAE Severity Grade (subject 106-024, 800/400 mg/day, onset day 474, action none, Recovered/resolved): 3
- Serious adverse event Tumor lysis syndrome: CTCAE Severity Grade (subject 106-024, 800/440 mg/day, onset day 366, stopped temporarily, Recovered/resolved): 3
- Serious adverse event Dehydration: CTCAE Severity Grade [5]: 2
- Serious adverse event Diarrhea: CTCAE Severity Grade [5]: 3
- Serious adverse event Nausea: CTCAE Severity Grade [5]: 2
- Serious adverse event Vomiting: CTCAE Severity Grade [5]: 2
- Serious adverse event Pleuritic pain: CTCAE Severity Grade (subject 106-033, 680/680 mg/day, onset day 8, stopped temporarily, Recovered/resolved): 2
- Serious adverse event Dehydration: CTCAE Severity Grade (subject 106-045, 680/440 mg/day, onset day 170, stopped temporarily, Recovered/resolved): 3
